Measurements taken from patent US20160130278A1 (TAISHO PHARMACEUTICAL CO., LTD, priority 2013, published 2016).

The compounds below were run against T1, human type 1 glycine transporter (GlyT1) (Homo sapiens, UniProt P48067) (assay: Glycine uptake inhibition experiment ([3H]glycine uptake)). Conditions: GlyT1.
T1 construct: T98G cells (glioma cells) expressing human type 1 glycine transporter (GlyT1) were used
T1 sequence (P48067 1-706): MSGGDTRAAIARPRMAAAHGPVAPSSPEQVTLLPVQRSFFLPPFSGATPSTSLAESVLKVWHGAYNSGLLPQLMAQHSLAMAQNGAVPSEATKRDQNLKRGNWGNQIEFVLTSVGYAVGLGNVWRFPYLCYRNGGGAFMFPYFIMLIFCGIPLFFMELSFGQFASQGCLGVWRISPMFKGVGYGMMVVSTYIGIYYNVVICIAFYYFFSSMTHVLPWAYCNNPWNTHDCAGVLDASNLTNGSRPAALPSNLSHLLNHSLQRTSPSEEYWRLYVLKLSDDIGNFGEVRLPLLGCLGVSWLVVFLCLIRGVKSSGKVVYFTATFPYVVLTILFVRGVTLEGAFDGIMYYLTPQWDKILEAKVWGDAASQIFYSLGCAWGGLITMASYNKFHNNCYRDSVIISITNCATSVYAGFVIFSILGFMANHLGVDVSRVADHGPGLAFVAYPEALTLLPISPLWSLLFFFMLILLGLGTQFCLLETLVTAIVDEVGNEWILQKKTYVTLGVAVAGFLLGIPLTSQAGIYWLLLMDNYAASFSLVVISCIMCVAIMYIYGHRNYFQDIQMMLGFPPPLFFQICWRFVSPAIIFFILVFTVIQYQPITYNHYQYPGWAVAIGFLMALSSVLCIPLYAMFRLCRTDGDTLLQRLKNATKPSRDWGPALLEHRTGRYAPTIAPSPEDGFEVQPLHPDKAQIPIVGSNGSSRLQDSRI
Type: cell-based
Summary of the method: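 T98G glioma cells expressing human GlyT1 were pretreated 10 min with compound in HEPES buffer pH 7.4 (0.2% BSA), then incubated with compound plus 250 nM final [3H]glycine for 15 min at room temperature. Intracellular radioactivity was counted after NaOH lysis; 10 μM ALX5407 defined non-specific uptake. IC50 came from 10^−9–10^−5 M curves.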
`O=C(NC(c1ccccc1Cl)[C@]1(O)CC[C@@H](F)CC1)c1ccnc(C(F)(F)F)c1Cl` (single isomer, unassigned) [Compound 211, 3-chloro-N-[(2-chlorophenyl)(cis-4-fluoro-1-hydroxycyclohexyl)methyl]-2-(trifluoromethyl)pyridine-4-carboxamide] gave an IC50 of 170 nM.
`O=C(NC(c1cccc(F)c1Cl)[C@]1(O)CC[C@@H](F)CC1)c1nccc(C(F)(F)F)c1Cl` (single isomer, unassigned) [Compound 213, 3-chloro-N-[(2-chloro-3-fluorophenyl)(cis-4-fluoro-1-hydroxycyclohexyl)methyl]-4-(trifluoromethyl)pyridine-2-carboxamide] gave an IC50 of 37 nM.
`O=C(NC(c1cccc(F)c1Cl)[C@]1(O)CC[C@@H](F)CC1)c1nccc(C(F)(F)F)c1Cl` (single isomer, unassigned) [Compound 214, 3-chloro-N-[(2-chloro-3-fluorophenyl)(cis-4-fluoro-1-hydroxycyclohexyl)methyl]-4-(trifluoromethyl)pyridine-2-carboxamide] gave an IC50 of 450 nM.
`CCn1cc(-c2cccc(C(NC(=O)c3ccc(F)cc3C(F)(F)F)C3(O)CCC(F)(F)CC3)c2)cn1` (single isomer, unassigned) [Compound 215, N-{(4,4-difluoro-1-hydroxycyclohexyl)[3-(1-ethyl-1H-pyrazol-4-yl)phenyl]methyl}-4-fluoro-2-(trifluoromethyl)benzamide] showed an IC50 of 210 nM.
`CCn1cc(-c2cccc(C(NC(=O)c3ccc(F)cc3C(F)(F)F)C3(O)CCC(F)(F)CC3)c2)cn1` (single isomer, unassigned) [Compound 216, N-{(4,4-difluoro-1-hydroxycyclohexyl)[3-(1-ethyl-1H-pyrazol-4-yl)phenyl]methyl}-4-fluoro-2-(trifluoromethyl)benzamide] gave an IC50 of 5500 nM.
With `CCn1cc(-c2cccc(C(NC(=O)c3cc(Cl)ccc3C(F)(F)F)C3(O)CCC(F)(F)CC3)c2)cn1` (single isomer, unassigned) [Compound 217, 5-chloro-N-{(4,4-difluoro-1-hydroxycyclohexyl)[3-(1-ethyl-1H-pyrazol-4-yl)phenyl]methyl}-2-(trifluoromethyl)benzamide] the IC50 was 580 nM.
`CCn1cc(-c2cccc(C(NC(=O)c3cc(Cl)ccc3C(F)(F)F)C3(O)CCC(F)(F)CC3)c2)cn1` (single isomer, unassigned) [Compound 218, 5-chloro-N-[(4,4-difluoro-1-hydroxycyclohexyl)[3-(1-ethyl-1H-pyrazol-4-yl)phenyl]methyl}-2-(trifluoromethyl)benzamide] gave an IC50 of 5900 nM.
`O=C(NC(c1cccc(Cl)c1F)C1(O)CCC(F)(F)CC1)c1cc(C(F)(F)F)ncc1Cl` (single isomer, unassigned) [Compound 219, 5-chloro-N-[(3-chloro-2-fluorophenyl)(4,4-difluoro-1-hydroxycyclohexyl)methyl]-2-(trifluoromethyl)pyridine-4-carboxamide] showed an IC50 of 920 nM.
`O=C(NC(c1cc(F)cc(Cl)c1)[C@]1(O)CC[C@@H](F)CC1)c1nccc(C(F)(F)F)c1Cl` (single isomer, unassigned) [Compound 220, 3-chloro-N-[(3-chloro-5-fluorophenyl)(cis-4-fluoro-1-hydroxycyclohexyl)methyl]-4-(trifluoromethyl)pyridine-2-carboxamide] gave an IC50 of 1800 nM.
With `CCn1cc(-c2cccc(C(NC(=O)c3c(Cl)ccc(C(F)(F)F)c3Cl)C3(O)CCC(F)(F)CC3)c2)cn1` (single isomer, unassigned) [Compound 221, 2,6-dichloro-N-{(4,4-difluoro-1-hydroxycyclohexyl)[3-(1-ethyl-1H-pyrazol-4-yl)phenyl]methyl}-3-(trifluoromethyl)benzamide] the IC50 was 5600 nM.
For `CCn1cc(-c2cccc(C(NC(=O)c3c(Cl)ccc(C(F)(F)F)c3Cl)C3(O)CCC(F)(F)CC3)c2)cn1` (single isomer, unassigned) [Compound 222, 2,6-dichloro-N-{(4,4-difluoro-1-hydroxycyclohexyl)[3-(1-ethyl-1H-pyrazol-4-yl)phenyl]methyl}-3-(trifluoromethyl)benzamide], the IC50 was 190 nM.
Work on `O=C(NC(c1cccc(F)c1Cl)[C@]1(O)CC[C@@H](F)CC1)c1ccnc(C(F)(F)F)c1Cl` (single isomer, unassigned) [Compound 223, 3-chloro-N-[(2-chloro-3-fluorophenyl)(cis-4-fluoro-1-hydroxycyclohexyl)methyl]-2-(trifluoromethyl)pyridine-4-carboxamide] yielded an IC50 of 56 nM.
`Cc1c(Cl)ccnc1C(=O)NC(c1cccc(F)c1Cl)[C@]1(O)CC[C@@H](F)CC1` (single isomer, unassigned) [Compound 224, 4-chloro-N-[(2-chloro-3-fluorophenyl)(cis-4-fluoro-1-hydroxycyclohexyl)methyl]-3-methylpyridine-2-carboxamide] showed an IC50 of 270 nM.
Compound `O=C(NC(c1ccc(F)c(Cl)c1)[C@]1(O)CC[C@@H](F)CC1)c1nccc(C(F)(F)F)c1Cl` (single isomer, unassigned) [Compound 225, 3-chloro-N-[(3-chloro-4-fluorophenyl)(cis-4-fluoro-1-hydroxycyclohexyl)methyl]-4-(trifluoromethyl)pyridine-2-carboxamide] has an IC50 of 390 nM.
Work on `O=C(NC(c1cccc(Cl)c1F)C1(O)CCC(F)(F)CC1)c1nc(C(F)(F)F)ccc1Cl` (single isomer, unassigned) [Compound 226, 3-chloro-N-[(3-chloro-2-fluorophenyl)(4,4-difluoro-1-hydroxycyclohexyl)methyl]-6-(trifluoromethyl)pyridine-2-carboxamide] yielded an IC50 of 1300 nM.
With `O=C(NC(c1ccc(F)c(Cl)c1)[C@]1(O)CC[C@@H](F)CC1)c1nccc(C(F)(F)F)c1Cl` (single isomer, unassigned) [Compound 228, 3-chloro-N-[(3-chloro-4-fluorophenyl)(cis-4-fluoro-1-hydroxycyclohexyl)methyl]-4-(trifluoromethyl)pyridine-2-carboxamide] the IC50 was 4200 nM.
For `O=C(NC(c1cccc(Cl)c1)C1(O)CCCCC1)c1nccc(C(F)(F)F)c1Cl` (single isomer, unassigned) [Compound 229, 3-chloro-N-[(3-chlorophenyl)(1-hydroxycyclohexyl)methyl]-4-(trifluoromethyl)pyridine-2-carboxamide], the IC50 was 28 nM.
In the case of `O=C(NC(c1cccc(Cl)c1)C1(O)CCCCC1)c1nccc(C(F)(F)F)c1Cl` (single isomer, unassigned) [Compound 230, 3-chloro-N-[(3-chlorophenyl)(1-hydroxycyclohexyl)methyl]-4-(trifluoromethyl)pyridine-2-carboxamide], the IC50 is reported as 2800 nM.
In the case of `[2H]C1([2H])C([2H])([2H])C([2H])([2H])C(O)(C(NC(=O)c2nccc(C(F)(F)F)c2Cl)c2cccc(Cl)c2)C([2H])([2H])C1([2H])[2H]` (single isomer, unassigned) [Compound 231, 3-chloro-N-{(3-chlorophenyl)[1-hydroxy(^2H10)cyclohexyl]methyl}-4-(trifluoromethyl)pyridine-2-carboxamide], the IC50 is reported as 40 nM.
Work on `[2H]C1([2H])C([2H])([2H])C([2H])([2H])C(O)(C(NC(=O)c2nccc(C(F)(F)F)c2Cl)c2cccc(Cl)c2)C([2H])([2H])C1([2H])[2H]` (single isomer, unassigned) [Compound 232, 3-chloro-N-{(3-chlorophenyl)[1-hydroxy(^2H10)cyclohexyl]methyl}-4-(trifluoromethyl)pyridine-2-carboxamide] yielded an IC50 of 1400 nM.
Compound `O=C(N[C@@H](c1cccc(F)c1)C1(O)CCC(F)(F)CC1)c1nccc(C(F)(F)F)c1Cl` (single isomer, unassigned) [Compound 233, 3-chloro-N-[(4,4-difluoro-1-hydroxycyclohexyl)(3-fluorophenyl)methyl]-4-(trifluoromethyl)pyridine-2-carboxamide] has an IC50 of 120 nM.
Compound `O=C(NC(c1cc(Cl)ccc1Cl)C1(O)CCC(F)(F)CC1)c1nccc(C(F)(F)F)c1Cl` (single isomer, unassigned) [Compound 234, 3-chloro-N-[(2,5-dichlorophenyl)(4,4-difluoro-1-hydroxycyclohexyl)methyl]-4-(trifluoromethyl)pyridine-2-carboxamide] has an IC50 of 280 nM.
`O=C(NC(c1cc(Cl)ccc1Cl)C1(O)CCC(F)(F)CC1)c1nccc(C(F)(F)F)c1Cl` (single isomer, unassigned) [Compound 235, 3-chloro-N-[(2,5-dichlorophenyl)(4,4-difluoro-1-hydroxycyclohexyl)methyl]-4-(trifluoromethyl)pyridine-2-carboxamide] gave an IC50 of 740 nM.
`O=C(NC(c1cccc(F)c1)C1(O)CCC(F)CC1)c1nccc(C(F)(F)F)c1Cl` (single isomer, unassigned) [Compound 236, 3-chloro-N-[(cis-4-fluoro-1-hydroxycyclohexyl)(3-fluorophenyl)methyl]-4-(trifluoromethyl)pyridine-2-carboxamide] showed an IC50 of 100 nM.
With `O=C(NC(c1ccccc1F)C1(O)CCC(F)(F)CC1)c1nccc(C(F)(F)F)c1Cl` (single isomer, unassigned) [Compound 237] the IC50 was 250 nM.
